Experimental data published in patent US6680335B2, “Methods of modulating protein tyrosine kinase function with substituted indolinone compounds” (Sugen, Inc., priority 1998, dated 2004).
Where “and” joins values, the source holds several entries; their conditions need not be identical. Equal entries are not always repeated.

Columns and labels:
[1] = biological target: T1, FLK-1 receptor (Mus musculus, UniProt P35918); assay: ELISA assay measuring the kinase activity of the FLK-1 receptor in cells engineered to express FLK-1; type: cell-based; conditions: FLK-1 expressing NIH3T3 C7#3 cells, VEGF stimulated; for inhibition at 100 µM: compound at 100 μM; for IC50: cells without % or + sign
T1 construct: expressed in transfected cells; host or cells: NIH3T3 C7#3 cells
T1 sequence (P35918 20-1345): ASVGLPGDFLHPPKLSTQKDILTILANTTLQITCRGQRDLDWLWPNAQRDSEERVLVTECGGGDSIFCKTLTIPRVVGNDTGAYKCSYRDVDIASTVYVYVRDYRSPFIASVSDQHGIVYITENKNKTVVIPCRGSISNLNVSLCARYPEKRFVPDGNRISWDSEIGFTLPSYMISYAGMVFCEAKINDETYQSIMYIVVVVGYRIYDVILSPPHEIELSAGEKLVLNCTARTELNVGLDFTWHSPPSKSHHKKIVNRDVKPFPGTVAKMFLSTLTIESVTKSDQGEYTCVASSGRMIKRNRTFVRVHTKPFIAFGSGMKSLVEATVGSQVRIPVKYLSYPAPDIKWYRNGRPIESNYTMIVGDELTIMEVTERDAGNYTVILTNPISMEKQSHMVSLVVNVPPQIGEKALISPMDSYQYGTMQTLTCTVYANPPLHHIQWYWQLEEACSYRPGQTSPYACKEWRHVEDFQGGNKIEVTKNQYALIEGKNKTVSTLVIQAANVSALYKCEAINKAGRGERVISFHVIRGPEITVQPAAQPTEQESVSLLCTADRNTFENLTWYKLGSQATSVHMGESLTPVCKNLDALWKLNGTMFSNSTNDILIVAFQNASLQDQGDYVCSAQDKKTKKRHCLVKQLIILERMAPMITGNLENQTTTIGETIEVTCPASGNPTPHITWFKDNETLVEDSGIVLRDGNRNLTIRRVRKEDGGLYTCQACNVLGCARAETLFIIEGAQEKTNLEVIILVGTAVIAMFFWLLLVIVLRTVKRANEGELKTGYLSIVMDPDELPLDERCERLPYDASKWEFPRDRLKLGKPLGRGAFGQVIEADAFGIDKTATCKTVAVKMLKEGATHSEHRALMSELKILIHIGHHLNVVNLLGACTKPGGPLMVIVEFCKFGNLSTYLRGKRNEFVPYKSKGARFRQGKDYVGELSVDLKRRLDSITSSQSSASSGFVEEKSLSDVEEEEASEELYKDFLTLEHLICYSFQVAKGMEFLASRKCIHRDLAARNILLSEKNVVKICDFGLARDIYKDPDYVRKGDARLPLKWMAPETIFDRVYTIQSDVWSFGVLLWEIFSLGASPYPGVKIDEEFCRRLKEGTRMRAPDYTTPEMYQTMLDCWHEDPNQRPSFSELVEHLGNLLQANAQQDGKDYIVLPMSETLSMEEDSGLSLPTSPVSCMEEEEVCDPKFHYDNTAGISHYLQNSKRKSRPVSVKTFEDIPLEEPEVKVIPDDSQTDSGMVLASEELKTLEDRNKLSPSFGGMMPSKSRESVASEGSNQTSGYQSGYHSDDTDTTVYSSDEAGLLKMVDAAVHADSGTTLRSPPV
Procedure: An ELISA assay was conducted to measure the kinase activity of the FLK-1 receptor and more specifically, the inhibition or activation of TK activity on the FLK-1 receptor. Specifically, the following assay was conducted to measure kinase activity of the FLK-1 receptor in cells genetically engineered to express FLK-1.
(11) NIH3T3 C7#3 Cells (FLK-1 expressing cells);
The following protocol was used for conducting the assay:
1. Coat Corning 96-well elisa plates with 1.0 μg per well Cappel Anti-rabbit IgG antibody in 0.1 M Na2CO3 pH 9.6. Bring final volume to 150 μL per well. Coat plates overnight at 4° C. Plates can be kept up to two weeks when stored at 4° C.
2. Grow cells in Growth media (DMEM, supplemental with 2.0 mM L-Glutamine, 10% FBS) in suitable culture dishes until confluent at 37° C., 5% CO2.
3. Harvest cells by trypsinization and seed in Corning 25850 polystyrene 96-well roundbottom cell plates, 25.000 cells/well in 200 μL of growth media.
4. Grow cells at least one day at 37° C., 5% CO2.
5. Wash cells with D-PBS 1×.
6. Add 200 μL/well of starvation media (DMEM, 2.0 mM 1-Glutamine, 0.1% FBS). Incubate overnight at 37° C., 5% CO2.
7. Dilute Compounds 1:20 in polypropylene 96 well plates using starvation media. Dilute dimethylsulfoxide 1:20 for use in control wells.
8. Remove starvation media from 96 well cell culture plates and add 162 μL of fresh starvation media to each well.
9. Add 18 μL of 1:20 diluted Compound dilution (from step 7) to each well plus the 1:20 dimethylsulfoxide dilution to the control wells (+/−VEGF), for a final dilution of 1:200 after cell stimulation. Final dimethylsulfoxide is 0.5%. Incubate the plate at 37° C., 5% CO2 for two hours.
10. Remove unbound antibody from ELISA plates by inverting plate to remove liquid. Wash 3 times with TBSW+0.5% ethanolamine, pH 7.0. Pat the plate on a paper towel to remove excess liquid and bubbles.
11. Block plates with TBSW+0.5% Ethanolamine, pH 7.0, 150 μL per well. Incubate plate thirty minutes while shaking on a microliter plate shaker.
12. Wash plate 3 times as described in step 10.
13. […] Bring final volume to 150 μL/well with TBSW+0.5% ethanolamine pH 7.0. Incubate plate for thirty minutes while shaking.
14. Add 180 μL starvation medium to the cells and stimulate cells with 20 μL/well 10.0 mM sodium ortho vanadate and 500 ng/mL VEGF (resulting in a final concentration of 1.0 mM sodium ortho vanadate and 50 ng/mL VEGF per well) for eight minutes at 37° C., 5% CO2. Negative control wells receive only starvation medium.
15. After eight minutes, media should be removed from the cells and washed one time with 200 μL/well PBS.
16. Lyse cells in 150 μL/well HNTG while shaking at room temperature for five minutes. HNTG formulation includes sodium ortho vanadate, sodium pyro phosphate and EDTA.
17. Wash ELISA plate three times as described in step 10.
18. Transfer cell lysates from the cell plate to ELISA plate and incubate while shaking for two hours. To transfer cell lysate pipette up and down while scrapping the wells.
19. Wash plate three times as described in step 10.
20. Incubate ELISA plate with 0.02 μg/well UB40 in TBSW+05% ethanolamine. Bring final volume to 150 μL/well. Incubate while shaking for 30 minutes.
21. Wash plate three times as described in step 10.
22. Incubate ELISA plate with 1:10,000 diluted EIA grade goat anti-mouse IgG conjugated horseradish peroxidase in TBSW+0.5% ethanolamine, pH 7.0. Bring final volume to 150 μL/well. Incubate while shaking for thirty minutes.
23. Wash plate as described in step 10.
24. Add 100 μL of ABTS/H2O2 solution to well. Incubate ten minutes while shaking.
25. Add 100 μL of 0.2 M HCl for 0.1 M HCl final to stop the color development reaction. Shake 1 minute at room temperature. Remove bubbles with slow stream of air and read the ELISA plate in an ELISA plate reader at 410 nm.
(§1) The IC50 values were measured for several of the compounds of the invention.

[2] = biological target: T2, EGFR protein (Homo sapiens, UniProt P00533); assay: ELISA assay measuring the kinase activity of the EGF receptor (captured from A431 cell lysate); type: biochemical
T2 construct: Add 120 μL TBS to ELISA plate containing captured EGFR; endogenous in cells; host or cells: A431 cells (lysate, captured with SUMO1 anti-EGFR antibody)
T2 sequence (P00533 25-1210): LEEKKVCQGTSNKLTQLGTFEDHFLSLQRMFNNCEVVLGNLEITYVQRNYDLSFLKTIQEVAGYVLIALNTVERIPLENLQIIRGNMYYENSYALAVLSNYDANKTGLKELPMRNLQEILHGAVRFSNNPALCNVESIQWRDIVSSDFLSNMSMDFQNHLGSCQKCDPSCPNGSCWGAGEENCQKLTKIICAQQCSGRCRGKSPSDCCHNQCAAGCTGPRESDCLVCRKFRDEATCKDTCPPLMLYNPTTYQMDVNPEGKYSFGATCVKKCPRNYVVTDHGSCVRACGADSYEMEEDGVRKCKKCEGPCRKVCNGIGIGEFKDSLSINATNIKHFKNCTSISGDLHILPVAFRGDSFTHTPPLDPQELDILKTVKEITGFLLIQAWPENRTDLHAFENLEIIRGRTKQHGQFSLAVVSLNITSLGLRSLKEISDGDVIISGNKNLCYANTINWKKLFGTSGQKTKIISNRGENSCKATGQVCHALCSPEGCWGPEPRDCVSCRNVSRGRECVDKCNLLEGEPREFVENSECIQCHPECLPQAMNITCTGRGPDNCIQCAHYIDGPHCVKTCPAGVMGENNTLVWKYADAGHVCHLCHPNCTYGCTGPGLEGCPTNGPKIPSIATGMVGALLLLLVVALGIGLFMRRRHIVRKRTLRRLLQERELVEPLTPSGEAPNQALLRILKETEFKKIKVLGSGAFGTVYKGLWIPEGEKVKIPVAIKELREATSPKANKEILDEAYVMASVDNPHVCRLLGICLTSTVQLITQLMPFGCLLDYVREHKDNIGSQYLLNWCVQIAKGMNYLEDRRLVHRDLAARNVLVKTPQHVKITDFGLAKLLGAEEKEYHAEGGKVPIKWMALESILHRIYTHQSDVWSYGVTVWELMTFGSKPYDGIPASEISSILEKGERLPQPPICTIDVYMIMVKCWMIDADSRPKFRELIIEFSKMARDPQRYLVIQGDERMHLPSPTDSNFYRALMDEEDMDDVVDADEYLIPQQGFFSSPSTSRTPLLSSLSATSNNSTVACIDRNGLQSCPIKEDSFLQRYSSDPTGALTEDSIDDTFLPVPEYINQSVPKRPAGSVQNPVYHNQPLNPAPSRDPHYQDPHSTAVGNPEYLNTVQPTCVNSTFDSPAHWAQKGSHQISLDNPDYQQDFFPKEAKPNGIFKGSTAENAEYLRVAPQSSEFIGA
Procedure: The following protocol describes the reagents and procedures used to analyze protein tyrosine kinase activity on the EGFR protein.
2. SUMO1 monoclonal anti-EGFR antibody
All of the following steps are conducted at room temperature unless it is specifically indicated. All ELISA plate washing is by rinsing 4× with TBST.
1. Coat Corning 96 well ELISA plates with 0.5 μ/well of SUMO1 in a volume of 100 μL PBS. Store overnight at 4° C.
2. Remove unbound SUMO1 by inverting plate to remove liquid. Wash plates with distilled water. Pat plate on a paper towel to remove excess liquid and bubbles
3. Add 150 μL of Blocking Buffer to each well. Incubate while shaking on a microliter plate shaker at room temperature for 30 min.
4. Wash 3× with deionized water, then once with TBST. Pat plate on a paper towel to remove excess liquid and bubbles.
5. Dilute lysate in PBS (7 μg of lysate/100 μL of PBS).
6. Add 100 μL of diluted lysate to each well. Shake at room temperature for 60 min.
7. Wash as described in step 4.
8. Add 120 μL TBS to ELISA plate containing captured EGFR.
9. Dilute drugs/extracts 1:10 (unless specified otherwise) in TBS in 96-well polypropylene plates.
10. Add 13.5 μL diluted drugs/extracts to ELISA plate.
11. Incubate for 30 minutes while shaking at room temperature.
12. […] Incubate while shaking on a micro-liter plate shaker at room temperature for 5 min.
13. Stop Kinase reaction with the addition of 16.5 μL of 200 mM EDTA pH 8.0 to all wells.
14. Wash 4× with deionized water and twice with TBST.
15. Add 100 μL per well of anti-phosphotyrosine (1:3000 dilution in TBST). Incubate while shaking on a micro-liter plate shaker 30-45 minutes at room temperature while shaking.
16. Wash as described in step 4.
17. Add 100 μL per well of biosource Goat anti-rabbit IgG peroxidase conjugate (1:2000 dilution in TBST). Incubate 30 min. at room temperature while shaking.
18. Wash as described in step 4.
19. Add 100 μL of ABTS/H2O2 solution to each well.
20. Incubate 5 to 15 minutes while shaking. Remove any bubbles.
21. If necessary stop reaction with the addition of 10 μL of 0.2 M HCl/well.
22. Read assay on Dynatech MR7000 ELISA Plate Reader.
as §1

Row | Compound | inhibition at 100 µM [1] [%] | IC50 [2] | IC50 [1] [µM]
1 | Cc1ccc2c(c1)/C(=C/c1[nH]c3ccccc3c1C)C(=O)N2 [IN-001, 5-Methyl-3-(3-methyl-1H-indol-2-ylmethylene)-1,3-dihydro-indol-2-one] | 10.7 | > 100 µM | –
2 | Cc1c(/C=C2\C(=O)Nc3ccc(S(N)(=O)=O)cc32)[nH]c2ccccc12 [IN-002, 3-(3-Methyl-1H-indol-2-ylmethylene)-2-oxo-2,3-dihydro-1H-indole-5-sulfonic acid amide] | 8.7 | > 100 µM | –
3 | Cc1c(/C=C2\C(=O)Nc3ccc(C(=O)O)cc32)[nH]c2ccccc12 [IN-005, 3-(3-Methyl-1H-indol-2-ylmethylene)-2-oxo-2,3-dihydro-1H-indole-5-carboxylic acid] | – | 8.2 µM | 4.2
4 | CC(=O)c1ccc2c(c1)C(=Cc1[nH]c3ccccc3c1C)C(=O)N2 [IN-006, 5-Acetyl-3-(3-methyl-1H-indol-2-ylmethylene)-1,3-dihydro-indol-2-one] | 10.4 | > 100 µM and 30.8 µM | –
5 | CC(=O)c1ccc2c(c1)C(=Cc1cc3ccccc3[nH]1)C(=O)N2 [IN-007, 5-Acetyl-3-(1H-indol-2-ylmethylene)-1,3-dihydro-indol-2-one] | 30 | > 100 µM | –
6 | NS(=O)(=O)c1ccc2c(c1)/C(=C/c1cc3ccccc3[nH]1)C(=O)N2 [IN-008, 3-(1H-Indol-2-ylmethylene)-2-oxo-2,3-dihydro-1H-indole-5-sulfonic acid amide] | 23 | > 100 µM | –
7 | Nc1ccc2c(c1)/C(=C/c1cc3ccccc3[nH]1)C(=O)N2 [IN-009, 5-Amino-3-(1H-indol-2-ylmethylene)-1,3-dihydro-indol-2-one] | – | > 100 µM | 1.53
8 | O=C1Nc2ccc(C(=O)O)cc2/C1=C/c1cc2ccccc2[nH]1 [IN-010, 3-(1H-Indol-2-ylmethylene)-2-oxo-2,3-dihydro-1H-indole-5-carboxylic acid] | – | > 100 µM | 2.1
9 | O=C1Nc2cc(Cl)ccc2/C1=C/c1cc2ccccc2[nH]1 [IN-011, 6-Chloro-3-(1H-indol-2-ylmethylene)-1,3-dihydro-indol-2-one] | 6.1 | > 100 µM | –
10 | O=C1Nc2ccccc2/C1=C/c1cc2ccccc2[nH]1 [IN-012, 3-(1H-Indol-2-ylmethylene)-1,3-dihydro-indol-2-one] | 17.6 | > 100 µM | –
11 | O=C1Nc2ccc(Cl)cc2/C1=C/c1cc2ccccc2[nH]1 [IN-013, 5-chloro-3-(1H-indol-2-ylmethylene)-1,3-dihydro-indol-2-one] | 17 | > 100 µM | –
12 | Cc1c(/C=C2\C(=O)Nc3ccccc32)[nH]c2ccccc12 [IN-016, 3-(3-Methyl-1H-indol-2-ylmethylene)-1,3-dihydro-indol-2-one] | 26 | > 100 µM | –
13 | Cc1c(/C=C2\C(=O)Nc3ccc(Cl)cc32)[nH]c2ccccc12 [IN-017, 5-Chloro-3-(3-methyl-1H-indol-2-ylmethylene)-1,3-dihydro-indol-2-one] | 20.4 | > 100 µM | –
14 | Cc1c(/C=C2\C(=O)Nc3ccc(Br)cc32)[nH]c2ccccc12 [IN-018, 5-Bromo-3-(3-methyl-1H-indol-2-ylmethylene)-1,3-dihydro-indol-2-one] | 15.8 | 17.8 µM and > 100 µM | –
15 | Cc1cccc2c1/C(=C/c1[nH]c3ccccc3c1C)C(=O)N2 [IN-019, 4-Methyl-3-(3-methyl-1H-indol-2-ylmethylene)-1,3-dihydro-indol-2-one] | 10.7 | > 100 µM | –
